Some test systems named below: KM12 colon; CAKI-1 renal; SK-MEL-2 melanoma; UACC-257 melanoma; PC-3 prostate; RPMI-8226 leukemia; HT29 colon; HCC-2998 colon; OVCAR-5 ovarian; CCRF-CEM leukemia.
Common to all, as to test: NCI tumour cell line growth inhibition, 48 h

The source of these data is PubChem BioAssay (NCI).

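How tested: cells in 96-well plates exposed to compound for 48 hours at five concentrations. GI50: concentration for 50% inhibition of growth. TGI denotes the concentration required for complete inhibition of growth.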

In the case of `CCOC(=O)c1cnc2c(cnn2CC)c1NN=C(C)C`, the GI50 was 67.1 µM in the experiment on KM12 colon; 22.9 µM with CAKI-1 renal; 53.5 µM with SK-MEL-2 melanoma; 30.4 µM with UACC-257 melanoma; 37.5 µM in the experiment on PC-3 prostate; 74.2 µM with RPMI-8226 leukemia. In addition, the GI50 in the experiment on HT29 colon is 23.3 µM; with HCC-2998 colon, over 100 µM; in the experiment with OVCAR-5 ovarian, 26.6 µM; with CCRF-CEM leukemia it was 78.3 µM. The TGI in the experiment with KM12 colon, in the experiment with CAKI-1 renal, in the experiment on SK-MEL-2 melanoma, in the experiment on UACC-257 melanoma, in the experiment on PC-3 prostate and with RPMI-8226 leukemia was over 100 µM throughout. Further, the TGI with HT29 colon, in the experiment on HCC-2998 colon, with OVCAR-5 ovarian and in the experiment on CCRF-CEM leukemia was over 100 µM throughout.
With `C=C1C(=O)O[C@H]2[C@H]1CC(=O)/C(C)=C\CC[C@@]1(C)O[C@@H]21`, the GI50 in the experiment on KM12 colon was 4.77 µg/mL; with CAKI-1 renal it was 1.19 µg/mL; in the experiment with SK-MEL-2 melanoma, 3.99 µg/mL; with UACC-257 melanoma it was 3.39 µg/mL; with PC-3 prostate, 4.53 µg/mL; in the experiment on RPMI-8226 leukemia, 0.514 µg/mL. Besides, the GI50 in the experiment with HT29 colon was 1.29 µg/mL; in the experiment on HCC-2998 colon, 3.47 µg/mL; in the experiment on OVCAR-5 ovarian, 4.16 µg/mL; in the experiment with CCRF-CEM leukemia it was 0.443 µg/mL. Besides, the TGI in the experiment on KM12 colon stood at 8.79 µg/mL; with CAKI-1 renal, 3.45 µg/mL; in the experiment on SK-MEL-2 melanoma, 8.47 µg/mL; in the experiment on UACC-257 melanoma, 6.99 µg/mL; with PC-3 prostate, 8.7 µg/mL; with RPMI-8226 leukemia, 1.3 µg/mL. Besides, the TGI in the experiment on HT29 colon worked out at 4.32 µg/mL; in the experiment with HCC-2998 colon, 7.4 µg/mL; in the experiment on OVCAR-5 ovarian, 8.24 µg/mL; with CCRF-CEM leukemia, 1.4 µg/mL.
As for `C#CC#CC#CC#CC#CC#CC#CC#CCC1OC[C@H](COC(=O)O[C@@H](C(=O)O[C@H]2C[C@@]3(O)[C@@H](OC(=O)c4ccccc4)[C@@H]4[C@]5(OC(C)=O)CO[C@@H]5C[C@H](O)[C@@]4(C)C(=O)[C@H](OC(C)=O)C(=C2C)C3(C)C)[C@@H](NC(=O)c2ccccc2)c2ccccc2)O1` (stereo not given in full), the GI50 in the experiment on KM12 colon is 0.196 µM; with CAKI-1 renal it was 1.4 µM; in the experiment with SK-MEL-2 melanoma, 1.56 µM; in the experiment with UACC-257 melanoma, over 8.84 µM; in the experiment on PC-3 prostate it was 0.569 µM; with RPMI-8226 leukemia it was 0.114 µM. The GI50 is 0.114 µM with HT29 colon, 0.52 µM with HCC-2998 colon, 0.554 µM with OVCAR-5 ovarian and 0.632 µM with CCRF-CEM leukemia. The TGI in the experiment on KM12 colon, in the experiment with CAKI-1 renal, in the experiment with SK-MEL-2 melanoma, with UACC-257 melanoma, in the experiment with PC-3 prostate and in the experiment on RPMI-8226 leukemia was over 33.3 µM each time. Besides, the TGI in the experiment on HT29 colon, in the experiment on HCC-2998 colon, in the experiment on OVCAR-5 ovarian and with CCRF-CEM leukemia was over 33.3 µM throughout.
Consider `Nc1c(O)c(S(=O)(=O)O)c(O)c2c1C(=O)c1ccccc1C2=O`, for which the GI50 in the experiment on KM12 colon was 2.94 µM; in the experiment with CAKI-1 renal it was 2.34 µM; in the experiment with SK-MEL-2 melanoma, 2.25 µM; in the experiment with UACC-257 melanoma, 2.38 µM; in the experiment on PC-3 prostate, 2.32 µM; with RPMI-8226 leukemia, 2.53 µM. For the same compound, the GI50 with HT29 colon was 2.72 µM; in the experiment with HCC-2998 colon, 2.84 µM; with OVCAR-5 ovarian, 3.22 µM; with CCRF-CEM leukemia, 3.1 µM. The TGI with KM12 colon stood at 12.8 µM; in the experiment on CAKI-1 renal it was 7.26 µM; in the experiment with SK-MEL-2 melanoma, 6.21 µM; with UACC-257 melanoma it was 6.33 µM; with PC-3 prostate, 7.87 µM; in the experiment with RPMI-8226 leukemia, 7.77 µM. The TGI in the experiment on HT29 colon was 10.4 µM; with HCC-2998 colon it was 32.8 µM; in the experiment on OVCAR-5 ovarian, 32.5 µM; in the experiment with CCRF-CEM leukemia, 11 µM.
`O=C1C=C(Nc2nc(C(=O)O)cc(=O)[nH]2)c2ccccc2C1=O`: the TGI in the experiment with KM12 colon, with CAKI-1 renal, with SK-MEL-2 melanoma, in the experiment with UACC-257 melanoma, in the experiment with PC-3 prostate and with RPMI-8226 leukemia was over 100 µM each time. Moreover, the TGI in the experiment on HT29 colon, with HCC-2998 colon, in the experiment with OVCAR-5 ovarian and in the experiment with CCRF-CEM leukemia was over 100 µM each time.
Take `c1ccc2c(c1)ccc1c3ccccc3ccc21`: the GI50 in the experiment on KM12 colon, in the experiment on CAKI-1 renal, in the experiment with SK-MEL-2 melanoma, with UACC-257 melanoma, in the experiment with PC-3 prostate and in the experiment on RPMI-8226 leukemia was over 50 µM in each case. Besides, the GI50 in the experiment with HT29 colon, in the experiment on HCC-2998 colon, in the experiment on OVCAR-5 ovarian and in the experiment with CCRF-CEM leukemia was over 50 µM throughout. Further, the TGI in the experiment with KM12 colon, in the experiment on CAKI-1 renal, in the experiment on SK-MEL-2 melanoma, in the experiment on UACC-257 melanoma, in the experiment on PC-3 prostate and in the experiment with RPMI-8226 leukemia was over 50 µM each time. Further, the TGI in the experiment on HT29 colon, in the experiment with HCC-2998 colon, in the experiment with OVCAR-5 ovarian and in the experiment on CCRF-CEM leukemia was over 50 µM each time.
With `Cc1ccccc1NC(=O)c1sc2nc3c(cc2c1N)C(=O)CCC3`, the GI50 in the experiment with KM12 colon is 1.69 µM; with CAKI-1 renal it was 6.74 µM; with SK-MEL-2 melanoma it was 0.548 µM; in the experiment on UACC-257 melanoma, 1.97 µM; in the experiment on PC-3 prostate it was 3.13 µM; with RPMI-8226 leukemia, 5.29 µM. Besides, the GI50 in the experiment on HT29 colon was 1.59 µM; with HCC-2998 colon it was 3.21 µM; in the experiment on OVCAR-5 ovarian, 6.82 µM; with CCRF-CEM leukemia, 2.55 µM. Further, the TGI with KM12 colon, with CAKI-1 renal, with SK-MEL-2 melanoma, with UACC-257 melanoma, in the experiment on PC-3 prostate and with RPMI-8226 leukemia was over 100 µM in each case. For the same compound, the TGI in the experiment with HT29 colon is 23.7 µM; with HCC-2998 colon it was over 100 µM; with OVCAR-5 ovarian, over 100 µM; in the experiment on CCRF-CEM leukemia, over 100 µM.
As to `N#CC(=S)Nc1ccc(F)cc1`, the TGI with KM12 colon was over 100 µM; in the experiment on CAKI-1 renal, over 100 µM; in the experiment on SK-MEL-2 melanoma it was over 100 µM; in the experiment with UACC-257 melanoma it was over 100 µM; in the experiment with PC-3 prostate, over 100 µM; in the experiment with RPMI-8226 leukemia, 41.6 µM. The TGI in the experiment with HT29 colon is over 100 µM; with HCC-2998 colon, over 100 µM; in the experiment on OVCAR-5 ovarian it was over 100 µM; in the experiment with CCRF-CEM leukemia, 54.9 µM.
